Test results: US8309319B2, “Fluorescent probe for measurement of UDP-glucuronosyltransferase” (The University of Tokyo, priority 2007, dated 2012)

Legend:
[1] = target: T1, UGT1A1 (Homo sapiens, UniProt P22309); test: Reactivity with UGT1A1, fluorescence method (decrease in fluorescence intensity); conditions: 37° C.
T1 sequence (P22309 26-533): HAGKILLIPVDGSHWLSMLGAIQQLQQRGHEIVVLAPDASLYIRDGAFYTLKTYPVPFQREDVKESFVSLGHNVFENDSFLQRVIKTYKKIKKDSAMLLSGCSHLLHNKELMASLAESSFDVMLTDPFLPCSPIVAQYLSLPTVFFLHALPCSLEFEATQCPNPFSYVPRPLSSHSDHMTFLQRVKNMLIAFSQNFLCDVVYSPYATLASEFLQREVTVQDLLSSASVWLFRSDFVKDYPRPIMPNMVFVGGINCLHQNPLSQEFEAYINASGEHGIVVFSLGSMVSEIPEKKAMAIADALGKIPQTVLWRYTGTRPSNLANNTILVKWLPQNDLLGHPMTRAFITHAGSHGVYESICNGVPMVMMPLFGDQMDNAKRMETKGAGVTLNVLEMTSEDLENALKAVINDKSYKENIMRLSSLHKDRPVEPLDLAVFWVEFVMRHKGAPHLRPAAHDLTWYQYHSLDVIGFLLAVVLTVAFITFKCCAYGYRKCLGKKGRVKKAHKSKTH

[2] = target: T1, UGT1A1; test: Reactivity with UGT1A1, absorbance method (decrease of absorbance); format: biochemical; parameters: host or cells: microsomes expressing UGT1A1; conditions: probe 10 μM, absorbance at 480 to 510 nm; compared with 2-Me-4-OMe-TG
[3] = target: T1, UGT1A1; test: Reactivity of fluorescence increasing (d-PeT) type probes with UGT1A1; format: biochemical; parameters: host or cells: microsomes expressing UGT1A1; conditions: FIG. 4
Experimental: The fluorescein derivatives of fluorescence decreasing type, of which fluorescence is decreased by a reaction with UGT, were obtained in Examples 1 and 2. Further researches were conducted in order to provide fluorescein derivatives of fluorescence increasing type of which fluorescence is increased by a reaction with UGT. Functionally, the structure of fluorescein can be recognized as two parts having different functions, i.e. the benzene ring moiety and the xanthene ring moiety. By appropriately choosing substituents on the benzene ring moiety among them, fluorescence thereof can be controlled by using PeT (J. Am. Chem. Soc., 123, pp. 2530-2536, 2001). […] Therefore, it is considered that there can be developed a fluorescence increasing type fluorescein derivative of which fluorescence is quenched by PeT before the reaction with UGT when the fluorescein derivative is a phenolate type, and fluorescence is emitted after the reaction with UGT when the fluorescein derivative is an O-glycoside type, by appropriately choosing the substituents on the benzene ring moiety (J. Am. Chem. Soc., 126, pp. 14079-14085, 2004). From such a point of view, 6-carboxyfluorescein dimethyl ester and 5,6-dicarboxyfluorescein trimethyl ester were designed as fluorescence increasing (d-PeT) type fluorescein derivatives, and reactivity thereof with UGT1A1 was confirmed.

[4] = probe 1 μM, excitation 480 to 510 nm

Which “decrease of fluorescence intensity to” value [1, 4] does the source give for `COc1ccc(-c2c3ccc(=O)cc-3oc3cc(O)ccc23)c(C)c1` [Derivative 11] here?
The value was at most 0.1%.

And the “decrease rate of fluorescence” value [1, 4]?
The value was “high decrease rate of fluorescence”.

How did the “decrease rate of absorbance” value [2] turn out when `Cc1ccc(-c2c3ccc(=O)cc-3oc3cc(O)ccc23)c([N+](=O)[O-])c1` [Derivative 15] was run?
Its value is “higher decrease rate of absorbance”.

Which “change of fluorescence intensity with passage of the reaction time” value [3] does the source give for `COC(=O)c1cc(C(=O)OC)c(-c2c3ccc(=O)cc-3oc3cc(O)ccc23)cc1C(=O)OC` [5,6-dicarboxyfluorescein trimethyl ester] here?
The value was “increase of fluorescence intensity was observed”.

`Nc1ccccc1-c1c2ccc(=O)cc-2oc2cc(O)ccc12` [Derivative 6] was tested. Which “reactivity with UGT1A1” value ([1]; UGT1A1 microsomes 0.1 mg/mL, UDP-glucuronic acid 2 mM, probe 1 μM (fluorescence) or 10 μM (absorbance)) did it give?
The value was “weak”.

How did the “change of fluorescence intensity with passage of the reaction time” value [3] turn out when `COC(=O)c1ccc(C(=O)OC)c(-c2c3ccc(=O)cc-3oc3cc(O)ccc23)c1` [6-carboxyfluorescein dimethyl ester] was run?
The value was “increase of fluorescence intensity was observed”.
